In ChEMBL document CHEMBL5247625, “Discovery and characterization of novel potent BCR-ABL degraders by conjugating allosteric inhibitor” (Eur J Med Chem, 2022) one finds Activity and IC50 data, which are given here for 34 compounds.

A value given as a limit tells only on which side of the number the result lay.

The target in experiment [1] is T1, Protein cereblon/Tyrosine-protein kinase ABL1/Breakpoint cluster region protein (Homo sapiens, UniProt P00519+P11274+Q96SW2). Kind of experiment: Protac activity at CRBN/BCR-ABL in human K562 cells assessed as increase in BCR-ABL degradation at 50 nM by Western blotting analysis. It counts as cell-based.
T1 sequence (P00519 whole entry, looked up): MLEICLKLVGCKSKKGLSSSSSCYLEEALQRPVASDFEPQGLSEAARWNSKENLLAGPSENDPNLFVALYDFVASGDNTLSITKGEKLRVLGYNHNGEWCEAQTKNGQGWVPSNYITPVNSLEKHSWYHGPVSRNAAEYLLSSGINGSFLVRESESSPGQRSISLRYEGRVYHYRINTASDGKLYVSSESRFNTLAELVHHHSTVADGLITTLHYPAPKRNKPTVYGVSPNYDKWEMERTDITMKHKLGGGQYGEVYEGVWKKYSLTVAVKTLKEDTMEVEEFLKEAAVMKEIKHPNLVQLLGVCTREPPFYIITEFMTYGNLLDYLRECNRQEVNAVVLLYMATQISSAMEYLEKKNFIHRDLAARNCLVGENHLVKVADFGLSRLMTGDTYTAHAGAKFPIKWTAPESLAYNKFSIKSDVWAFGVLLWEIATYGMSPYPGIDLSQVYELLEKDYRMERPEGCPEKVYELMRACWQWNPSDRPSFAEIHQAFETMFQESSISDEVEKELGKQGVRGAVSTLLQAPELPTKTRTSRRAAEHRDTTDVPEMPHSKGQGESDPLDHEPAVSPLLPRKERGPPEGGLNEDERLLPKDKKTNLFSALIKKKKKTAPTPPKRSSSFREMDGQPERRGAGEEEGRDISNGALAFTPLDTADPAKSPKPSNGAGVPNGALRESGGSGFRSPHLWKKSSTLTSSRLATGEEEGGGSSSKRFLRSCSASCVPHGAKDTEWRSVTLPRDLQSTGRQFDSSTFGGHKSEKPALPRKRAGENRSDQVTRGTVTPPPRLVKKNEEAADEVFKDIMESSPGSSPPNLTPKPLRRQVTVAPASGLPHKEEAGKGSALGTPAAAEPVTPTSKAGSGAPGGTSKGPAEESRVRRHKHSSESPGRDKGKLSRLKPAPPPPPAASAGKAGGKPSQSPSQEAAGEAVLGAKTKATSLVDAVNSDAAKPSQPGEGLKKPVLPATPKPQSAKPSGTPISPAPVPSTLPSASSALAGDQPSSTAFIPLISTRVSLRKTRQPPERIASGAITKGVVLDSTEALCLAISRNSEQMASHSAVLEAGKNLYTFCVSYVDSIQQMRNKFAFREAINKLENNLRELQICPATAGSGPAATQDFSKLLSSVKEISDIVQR
T1 sequence (P11274 whole entry, looked up): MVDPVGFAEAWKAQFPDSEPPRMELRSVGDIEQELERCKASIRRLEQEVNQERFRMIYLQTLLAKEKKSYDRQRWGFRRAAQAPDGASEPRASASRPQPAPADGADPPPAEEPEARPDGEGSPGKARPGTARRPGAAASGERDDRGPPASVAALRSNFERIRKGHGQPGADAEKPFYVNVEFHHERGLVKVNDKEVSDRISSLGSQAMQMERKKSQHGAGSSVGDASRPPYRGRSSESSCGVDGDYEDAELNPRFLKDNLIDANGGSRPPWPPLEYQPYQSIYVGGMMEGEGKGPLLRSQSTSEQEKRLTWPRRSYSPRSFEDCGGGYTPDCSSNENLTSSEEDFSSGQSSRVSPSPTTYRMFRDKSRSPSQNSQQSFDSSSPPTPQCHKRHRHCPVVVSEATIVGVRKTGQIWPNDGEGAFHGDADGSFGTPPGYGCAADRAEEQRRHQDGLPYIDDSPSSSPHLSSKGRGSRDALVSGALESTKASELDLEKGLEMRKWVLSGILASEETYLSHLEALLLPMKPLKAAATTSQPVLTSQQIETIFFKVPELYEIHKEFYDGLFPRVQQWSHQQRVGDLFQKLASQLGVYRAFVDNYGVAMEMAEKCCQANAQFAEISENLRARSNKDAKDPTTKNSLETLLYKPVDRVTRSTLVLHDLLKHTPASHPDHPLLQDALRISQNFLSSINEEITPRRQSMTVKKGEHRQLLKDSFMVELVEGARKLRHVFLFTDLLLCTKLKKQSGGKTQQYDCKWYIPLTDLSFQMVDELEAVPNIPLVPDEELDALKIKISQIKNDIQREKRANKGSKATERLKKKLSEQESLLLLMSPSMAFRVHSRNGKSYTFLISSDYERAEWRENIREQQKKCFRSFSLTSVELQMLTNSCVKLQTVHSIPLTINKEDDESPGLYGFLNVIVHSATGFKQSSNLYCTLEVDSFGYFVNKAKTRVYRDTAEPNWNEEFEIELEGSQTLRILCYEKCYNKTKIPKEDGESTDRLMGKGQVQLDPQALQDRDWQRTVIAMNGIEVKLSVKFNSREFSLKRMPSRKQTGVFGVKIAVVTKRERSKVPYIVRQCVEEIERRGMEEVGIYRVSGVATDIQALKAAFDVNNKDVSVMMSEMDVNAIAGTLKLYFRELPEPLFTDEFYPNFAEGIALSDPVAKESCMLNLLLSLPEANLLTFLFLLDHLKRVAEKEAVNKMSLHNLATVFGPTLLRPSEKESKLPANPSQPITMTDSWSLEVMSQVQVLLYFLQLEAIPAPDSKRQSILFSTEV
T1 sequence (Q96SW2 whole entry, looked up): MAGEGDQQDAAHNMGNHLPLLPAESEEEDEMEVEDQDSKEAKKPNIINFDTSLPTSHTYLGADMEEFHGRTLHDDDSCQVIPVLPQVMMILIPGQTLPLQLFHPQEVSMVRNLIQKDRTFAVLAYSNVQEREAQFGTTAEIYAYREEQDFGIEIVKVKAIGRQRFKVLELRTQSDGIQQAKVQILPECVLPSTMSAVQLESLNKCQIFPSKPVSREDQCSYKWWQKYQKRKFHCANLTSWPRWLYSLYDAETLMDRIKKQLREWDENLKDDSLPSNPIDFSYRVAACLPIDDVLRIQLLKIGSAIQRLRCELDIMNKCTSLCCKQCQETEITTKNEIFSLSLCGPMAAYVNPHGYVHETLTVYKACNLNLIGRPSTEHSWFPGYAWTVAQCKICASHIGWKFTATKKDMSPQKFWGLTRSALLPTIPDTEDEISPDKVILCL
Experiment [2] concerns K562. Kind of experiment: cells. As to conditions: Homo sapiens, K562, 48 h.
Description: Antiproliferative activity against human K562 cells assessed as inhibition of cell growth incubated for 2 days by CCK8 assay
For experiment [3], the target named is T1, Protein cereblon/Tyrosine-protein kinase ABL1/Breakpoint cluster region protein. Kind of experiment: Protac activity at CRBN/BCR-ABL in human K562 cells assessed as increase in BCR-ABL degradation at 5 nM by Western blotting analysis. Format: cell-based.
The target is the same in experiment [4]. Kind of experiment: Protac activity at CRBN/BCR-ABL in human K562 cells assessed as increase in BCR-ABL degradation at 100 nM by Western blotting analysis. It counts as cell-based.

`O=C1CCC(N2Cc3c(SCCOCC(=O)N4CCN(c5ncc(C(=O)Nc6ccc(OC(F)(F)Cl)cc6)cc5-c5ccn[nH]5)CC4)cccc3C2=O)C(=O)N1` (centres undefined): the Activity in experiment [1] was 10.2%. Further, 154 nM corresponded to half-maximal inhibition in experiment [2] (IC50).
With `O=C1CCC(N2Cc3c(SCCCN4CCN(c5ncc(C(=O)Nc6ccc(OC(F)(F)Cl)cc6)cc5-c5ccn[nH]5)CC4)cccc3C2=O)C(=O)N1` (centres undefined), the Activity in experiment [3] came out at 48.4%; in experiment [4], 40%. The IC50 in experiment [2] is 137 nM.
As for `O=C1CCC(N2C(=O)c3cccc(NCCCCC(=O)N4CCN(c5ncc(C(=O)Nc6ccc(OC(F)(F)Cl)cc6)cc5-c5ccn[nH]5)CC4)c3C2=O)C(=O)N1` (centres undefined), the Activity in experiment [1] is 1.94%. The compound further came in with an IC50 in experiment [2] of 172 nM.
Taken in the same sequence, the figures for `O=C1CCC(N2C(=O)c3cccc(NCCOCCOCCC(=O)N4CCN(c5ncc(C(=O)Nc6ccc(OC(F)(F)Cl)cc6)cc5-c5ccn[nH]5)CC4)c3C2=O)C(=O)N1` (centres undefined) were -1.5% and 1100 nM.
Take `O=C1CCC(N2Cc3c(SCCCCCCNc4ncc(C(=O)Nc5ccc(OC(F)(F)Cl)cc5)cc4-c4ccn[nH]4)cccc3C2=O)C(=O)N1` (centres undefined): the values for the Activity in experiment [3] and in experiment [4] were -5.46% and -8.74%, respectively. Further, the IC50 in experiment [2] came out at 1960 nM.
Regarding `O=C1CCC(N2C(=O)c3cccc(C#CCCCC(=O)N4CCN(c5ncc(C(=O)Nc6ccc(OC(F)(F)Cl)cc6)cc5-c5ccn[nH]5)CC4)c3C2=O)C(=O)N1` (centres undefined), the Activity in experiment [1] stood at 9.65%. In experiment [2], this compound came in with a half-inhibitory concentration (IC50) of 278 nM.
`Nc1cccc2c1C(=O)N(C1CCC(=O)NC1=O)C2=O` (centres undefined) [POMALIDOMIDE] had an IC50 in experiment [2] of more than 10000 nM.
`O=C1CCC(N2Cc3c(SCCCN4CCN(C5CCN(c6ncc(C(=O)Nc7ccc(OC(F)(F)Cl)cc7)cc6-c6ccn[nH]6)CC5)CC4)cccc3C2=O)C(=O)N1` (centres undefined): the results for the Activity in experiment [3] and in experiment [4] were 55.5% and 49.6%, respectively. Besides, half-maximal inhibition in experiment [2] (IC50) required 48.5 nM.
For `O=C1CCC(N2Cc3c(SCCCCCCN4CCN(c5ncc(C(=O)Nc6ccc(OC(F)(F)Cl)cc6)cc5-c5ccn[nH]5)CC4)cccc3C2=O)C(=O)N1` (centres undefined) the same measures were 24.6%, 40.8% and 292 nM.
Regarding `Nc1cccc2c1CN(C1CCC(=O)NC1=O)C2=O` (centres undefined) [LENALIDOMIDE], in experiment [2], the IC50 was more than 10000 nM.
As for `O=C1CCC(N2Cc3c(NCCCC(=O)N4CCN(c5ncc(C(=O)Nc6ccc(OC(F)(F)Cl)cc6)cc5-c5ccn[nH]5)CC4)cccc3C2=O)C(=O)N1` (centres undefined), the Activity in experiment [1] was -2.33%. In addition, the half-inhibitory concentration (IC50) in experiment [2] was 666 nM.
Consider `O=C1CCC(N2C(=O)c3cccc(NCCCCCC(=O)N4CCN(c5ncc(C(=O)Nc6ccc(OC(F)(F)Cl)cc6)cc5-c5ccn[nH]5)CC4)c3C2=O)C(=O)N1` (centres undefined), for which the Activity in experiment [1] is 1.67%. For the same compound, in experiment [2], inhibition was half-maximal at 186 nM (IC50).
As for `O=C1CCC(N2Cc3c(C#CCCCCN4CCN(c5ncc(C(=O)Nc6ccc(OC(F)(F)Cl)cc6)cc5-c5ccn[nH]5)CC4)cccc3C2=O)C(=O)N1` (centres undefined), the figures for the Activity in experiment [3] and in experiment [4] were 32.8% and 89.1%, respectively. The compound further had a half-inhibitory concentration (IC50) in experiment [2] of 40.9 nM.
For `O=C1CCC(N2Cc3c(SCCCCNc4ncc(C(=O)Nc5ccc(OC(F)(F)Cl)cc5)cc4-c4ccn[nH]4)cccc3C2=O)C(=O)N1` (centres undefined) the same measures were -3.56%, -9.23% and 928 nM.
Taken in the same sequence, the figures for `O=C1CCC(N2Cc3c(SCCCCCNc4ncc(C(=O)Nc5ccc(OC(F)(F)Cl)cc5)cc4-c4ccn[nH]4)cccc3C2=O)C(=O)N1` (centres undefined) were 6.85%, 29.6% and 558 nM.
For `O=C1CCC(N2Cc3c(OCCCCCCN4CCN(C5CCN(c6ncc(C(=O)Nc7ccc(OC(F)(F)Cl)cc7)cc6-c6ccn[nH]6)CC5)CC4)cccc3C2=O)C(=O)N1` (centres undefined), the Activity in experiment [3] was 28.8%; in experiment [4] it was 67.9%. Also, in experiment [2], the 50% inhibitory concentration (IC50) worked out at 66 nM.
Regarding `O=C1CCC(N2Cc3c(SCCCCCNC4CCN(c5ncc(C(=O)Nc6ccc(OC(F)(F)Cl)cc6)cc5-c5ccn[nH]5)CC4)cccc3C2=O)C(=O)N1` (centres undefined), the Activity is -3.96% in experiment [3] and 29.7% in experiment [4]. This compound yielded a half-inhibitory concentration (IC50) in experiment [2] of 978 nM.
In the case of `O=C1CCC(N2C(=O)c3cccc(NCCOCCOCCOCCOCCC(=O)N4CCN(c5ncc(C(=O)Nc6ccc(OC(F)(F)Cl)cc6)cc5-c5ccn[nH]5)CC4)c3C2=O)C(=O)N1` (centres undefined), the Activity in experiment [1] is 4.94%. Further, it took 886 nM to reach half-maximal inhibition in experiment [2] (IC50).
For `O=C1CCC(N2Cc3c(OCCCCN4CCN(c5ncc(C(=O)Nc6ccc(OC(F)(F)Cl)cc6)cc5-c5ccn[nH]5)CC4)cccc3C2=O)C(=O)N1` (centres undefined), the Activity is 30.6% in experiment [3] and 89.2% in experiment [4]. Moreover, the half-inhibitory concentration (IC50) in experiment [2] worked out at 67.2 nM.
Taken in the same sequence, the figures for `O=C1CCC(N2Cc3c(SCCCCNC4CCN(c5ncc(C(=O)Nc6ccc(OC(F)(F)Cl)cc6)cc5-c5ccn[nH]5)CC4)cccc3C2=O)C(=O)N1` (centres undefined) were 5.76%, 41.6% and 322 nM.
Taken in the same sequence, the figures for `O=C1CCC(N2Cc3c(SCCCCN4CCN(c5ncc(C(=O)Nc6ccc(OC(F)(F)Cl)cc6)cc5-c5ccn[nH]5)CC4)cccc3C2=O)C(=O)N1` (centres undefined) were 40.8%, 87.8% and 30.3 nM.
Taken in the same sequence, the figures for `O=C1CCC(N2Cc3c(C#CCCCCCCN4CCN(C5CCN(c6ncc(C(=O)Nc7ccc(OC(F)(F)Cl)cc7)cc6-c6ccn[nH]6)CC5)CC4)cccc3C2=O)C(=O)N1` (centres undefined) were 38.4%, 29.9% and 124 nM.
Consider `O=C1CCC(N2Cc3c(SCCCCCN4CCN(C5CCN(c6ncc(C(=O)Nc7ccc(OC(F)(F)Cl)cc7)cc6-c6ccn[nH]6)CC5)CC4)cccc3C2=O)C(=O)N1` (centres undefined), for which the figures for the Activity in experiment [3] and in experiment [4] were 24.3% and 37.1%, respectively. In experiment [2], the IC50 amounted to 23.1 nM.
Turning to `O=C1CCC(N2C(=O)c3cccc(OCCCC(=O)N4CCN(c5ncc(C(=O)Nc6ccc(OC(F)(F)Cl)cc6)cc5-c5ccn[nH]5)CC4)c3C2=O)C(=O)N1` (centres undefined), the Activity in experiment [1] was -1.35%. Also, the IC50 in experiment [2] amounted to 1120 nM.
On to `O=C1CCC(N2Cc3c(SCCCCN4CCN(C5CCN(c6ncc(C(=O)Nc7ccc(OC(F)(F)Cl)cc7)cc6-c6ccn[nH]6)CC5)CC4)cccc3C2=O)C(=O)N1` (centres undefined), for which the Activity was 38.9% in experiment [3] and 86.1% in experiment [4]. Besides, it took 34.7 nM to reach half-maximal inhibition in experiment [2] (IC50).
In the case of `O=C1CCC(N2Cc3c(SCCCC(=O)N4CCN(c5ncc(C(=O)Nc6ccc(OC(F)(F)Cl)cc6)cc5-c5ccn[nH]5)CC4)cccc3C2=O)C(=O)N1` (centres undefined), the Activity in experiment [1] stood at 35.1%. The same compound returned an IC50 in experiment [2] of 106 nM.
Taken in the same sequence, the figures for `O=C1CCC(N2Cc3c(OCCCC(=O)N4CCN(c5ncc(C(=O)Nc6ccc(OC(F)(F)Cl)cc6)cc5-c5ccn[nH]5)CC4)cccc3C2=O)C(=O)N1` (centres undefined) were -12.3% and 2120 nM.
Regarding `O=C1CCC(N2C(=O)c3cccc(SCCCC(=O)N4CCN(c5ncc(C(=O)Nc6ccc(OC(F)(F)Cl)cc6)cc5-c5ccn[nH]5)CC4)c3C2=O)C(=O)N1` (centres undefined), in experiment [1], the Activity was determined as 9.57%. The compound also showed an IC50 in experiment [2] of 528 nM.
For `O=C1CCC(N2C(=O)c3cccc(SCCCCN4CCN(C5CCN(c6ncc(C(=O)Nc7ccc(OC(F)(F)Cl)cc7)cc6-c6ccn[nH]6)CC5)CC4)c3C2=O)C(=O)N1` (centres undefined), the Activity in experiment [3] is 38.2%; in experiment [4], 70.9%. Moreover, it took 170 nM to reach half-maximal inhibition in experiment [2] (IC50).
For `O=C1CCC(N2Cc3c(SCCCCCCNC4CCN(c5ncc(C(=O)Nc6ccc(OC(F)(F)Cl)cc6)cc5-c5ccn[nH]5)CC4)cccc3C2=O)C(=O)N1` (centres undefined) the same measures were 29.4%, 70.9% and 228 nM.
In the case of `O=C1CCC(N2Cc3c(SCCCCCCCN4CCN(C5CCN(c6ncc(C(=O)Nc7ccc(OC(F)(F)Cl)cc7)cc6-c6ccn[nH]6)CC5)CC4)cccc3C2=O)C(=O)N1` (centres undefined), the Activity came out at 21.9% in experiment [3] and 64.4% in experiment [4]. This compound also came in with an IC50 in experiment [2] of 47 nM.
For the compound `O=C1CCC(N2C(=O)c3cccc(NCCCCCCC(=O)N4CCN(c5ncc(C(=O)Nc6ccc(OC(F)(F)Cl)cc6)cc5-c5ccn[nH]5)CC4)c3C2=O)C(=O)N1` (centres undefined), in experiment [1], the Activity came out at 1%. Further, in experiment [2], half-maximal inhibition (IC50) was put at 380 nM.
For `O=C1CCC(N2C(=O)c3cccc(NCCCC(=O)N4CCN(c5ncc(C(=O)Nc6ccc(OC(F)(F)Cl)cc6)cc5-c5ccn[nH]5)CC4)c3C2=O)C(=O)N1` (centres undefined) the same measures were 9.05% and 130 nM.
Regarding `O=C1CCC(N2C(=O)c3cccc(NCC(=O)N4CCN(c5ncc(C(=O)Nc6ccc(OC(F)(F)Cl)cc6)cc5-c5ccn[nH]5)CC4)c3C2=O)C(=O)N1` (centres undefined), the Activity in experiment [1] came out at 1.82%. In addition, half-maximal inhibition in experiment [2] (IC50) required 572 nM.
